Where no end group is shown, it is not given here. red fluorescent dye = not defined here
Key:
[1] = target: AKT2 (Homo sapiens, UniProt P31751); test: In vitro kinase assay AKT2; type: biochemical; conditions: ten times higher concentration than 0.1 μM
Experimental: As a specific substrate, the phosphorylation level of GSK-3[…] at Ser-9 was also evaluated. […] The decrease was specific to the AKT phosphorylation site on GSK-3[…] at Ser-9, since a change in the phosphorylation level of GSK-3[…] at Tyr-216 or GSK-3[…] at Tyr-279 was not observed. Moreover, the in vivo reduction of the phosphorylation of AKT substrates was more obvious at the injection site, since a significant change in the phosphorylation of AKT substrates in the frontal cortex or cerebellum between the two hemispheres was not observed. […] To test the specificity/selectivity of ZaTa as the inhibitor of AKT1 versus the other major kinases, a series of in vitro kinase assays was performed at IC50 for AKT1 and at ten times higher concentrations. A panel of the following 32 kinases was first tested in vitro using the active form of each kinase and a specific substrate: AKT2, AKT3, PKA, PKC[…], PKC, PI3K[…], PI3K[…], PI3K, SGK, PAK2, PAK3, SAPK2/p38, Abl, CaMKII, CDK1/cyclinB, CDK5/p35, CK1, CK2, CSK, GSK3[…], GSK3[…], JNK1[…]1, MAPK1, p70S6K, PDGFR[…], PDGFR[…], PDK1, PKG1[…], TrkB, JAK2, JAK3, and Syk. […] However, at ten times higher concentration, ZaTa inhibited AKT2 (63%), PI3K[…] (72%), p70S6K (64%), SGK (73%), PAK3 (83%), JAK3 (79%), TrkB (84%), and Abl (42%). […]

[2] = target: PAK3 (Homo sapiens, UniProt O75914); test: Cell-based kinase assay, phosphorylation of intracellular substrate (Ser-338 cRaf)
Chain of PAK3 (O75914 whole entry, species assumed): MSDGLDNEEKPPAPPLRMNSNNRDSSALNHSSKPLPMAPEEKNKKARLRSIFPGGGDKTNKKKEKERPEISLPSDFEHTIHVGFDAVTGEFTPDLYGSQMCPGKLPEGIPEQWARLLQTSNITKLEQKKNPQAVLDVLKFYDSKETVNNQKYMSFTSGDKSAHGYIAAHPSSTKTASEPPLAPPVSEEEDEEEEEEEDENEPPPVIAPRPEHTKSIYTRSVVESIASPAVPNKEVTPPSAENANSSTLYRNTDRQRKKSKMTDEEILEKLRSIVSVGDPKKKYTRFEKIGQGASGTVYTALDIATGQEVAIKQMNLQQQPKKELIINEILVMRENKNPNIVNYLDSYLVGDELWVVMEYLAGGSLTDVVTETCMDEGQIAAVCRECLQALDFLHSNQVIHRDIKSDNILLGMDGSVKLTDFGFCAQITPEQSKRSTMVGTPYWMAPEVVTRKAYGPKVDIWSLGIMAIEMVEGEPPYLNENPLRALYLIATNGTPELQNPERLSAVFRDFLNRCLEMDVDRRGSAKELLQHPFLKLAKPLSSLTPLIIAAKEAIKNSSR
Experimental: As a specific substrate, the phosphorylation level of GSK-3[…] at Ser-9 was also evaluated. […] The decrease was specific to the AKT phosphorylation site on GSK-3[…] at Ser-9, since a change in the phosphorylation level of GSK-3[…] at Tyr-216 or GSK-3[…] at Tyr-279 was not observed. Moreover, the in vivo reduction of the phosphorylation of AKT substrates was more obvious at the injection site, since a significant change in the phosphorylation of AKT substrates in the frontal cortex or cerebellum between the two hemispheres was not observed. […] To test the specificity/selectivity of ZaTa as the inhibitor of AKT1 versus the other major kinases, a series of in vitro kinase assays was performed at IC50 for AKT1 and at ten times higher concentrations. […]
Phosphorylation sites for kinases analyzed herein included Ser-235/236 S6 (a substrate for p70S6K), Tyr-207 CRKL (a substrate for Abl; Zipfel, et al. (2004) supra), Ser-241 PDK1 (a substrate for PI3K), Tyr-1022/1023 JAK1 (a substrate for JAK3; Wang, et al. (2003) supra), Ser-421 Huntingtin (a substrate for SGK; Rangone, et al. (2004) supra), Tyr-783 PLC (a substrate for TrkB; Middlemas, et al. (1994) supra), and Ser-338 cRaf (a substrate for PAK3; King, et al. (1998) supra).

[3] = tested on: olfactory bulb cells; test: In vivo TUNEL in olfactory bulb after repeated intranasal delivery; design: species or system C57BL/6 mice; conditions: repeated intranasal treatment for three days
Description: To confirm the apoptotic inducing effect of ZaTa in vivo, ZaTa was delivered to the mouse brain via the nasal cavity, a minimally invasive procedure compared to the stereotactic surgery. Intranasal delivery of compounds into the brain is an efficient and effective way for local delivery of compounds, without the need for passing the blood brain barriers, the major obstacle for studying the effect of different inhibitors/activators in CNS (Vyas, et al. (2005) Curr. Drug Deliv. 2:165-175; Hrafnkelsdottir, et al. (2005) Biol. Pharm. Bull. 28:1038-1042). […] This was visualized by double labeling of the brain sections with fluorescent TUNEL and a nuclear marker.
Depending on the intended use, a pharmaceutical composition of the invention can be administered by any suitable means, including parenteral injection (such as intraperitoneal, subcutaneous, intratumoral or intramuscular injection), orally or by topical application (e.g., transdermal or via a mucosal surface). By pharmaceutically acceptable formulation is meant, a composition or formulation that allows for the effective distribution of the nucleic acid molecules of the instant invention in the physical location most suitable for their desired activity. […]

Chain of AKT2 (P31751 whole entry, species assumed): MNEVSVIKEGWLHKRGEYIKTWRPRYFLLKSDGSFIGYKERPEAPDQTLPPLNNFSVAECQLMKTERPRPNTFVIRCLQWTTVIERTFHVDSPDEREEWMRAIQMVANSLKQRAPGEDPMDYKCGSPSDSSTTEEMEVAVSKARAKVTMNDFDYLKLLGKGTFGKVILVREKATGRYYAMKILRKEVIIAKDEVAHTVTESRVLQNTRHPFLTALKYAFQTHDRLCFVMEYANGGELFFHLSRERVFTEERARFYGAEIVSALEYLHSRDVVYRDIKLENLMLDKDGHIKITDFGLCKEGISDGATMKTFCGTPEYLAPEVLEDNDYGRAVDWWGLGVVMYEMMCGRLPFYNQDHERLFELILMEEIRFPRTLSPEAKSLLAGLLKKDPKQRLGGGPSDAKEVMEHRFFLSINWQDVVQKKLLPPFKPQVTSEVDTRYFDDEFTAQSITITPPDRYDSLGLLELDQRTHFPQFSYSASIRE

Row | Substance | inhibition of AKT2 [1] [%] | inhibition of PAK3 in cells [2] | number of apoptotic cells in olfactory bulb [3]
1 | AKRVKGRTWTLCGTPEY [ZaTa] | 63 |  | 
2 | labeled ZaTa: ZaTa peptide labeled with a red fluorescent dye at its N-terminus ({red fluorescent dye}-AKRVKGRTWTLCGTPEY; reading uncertain) |  | did not cause inhibition | significantly increased

Reference: US8541670B2, “Compositions and methods for inhibiting tumor cell growth” (priority 2007, dated 2013)
